The source of these data is US9738614B2, “Malignant and non-malignant disease treatment with Ras antagonists” (PISCES THERAPEUTICS, LLC, priority 2011, dated 2017).

SMILES strings stand for the structures.

For data set [1], the system named is U87MG cells. Description: Cell proliferation assay for U87MG cells. It counts as cell-based. Here is the method:
(§1) The adult glioblastoma cell line U87MG was obtained from a commercial source (ATCC). The pancreatic cancer cell line PANC-1 was obtained from a local laboratory (Indiana University). Both lines were grown in Iscove's Modified Dulbecco's Medium with 10% fetal bovine serum (FBS) at 37° C. and 5% CO2.
(§2) Compounds (1), (2), (3), (4), and (5), which are shown and described above, were each dissolved in ethanol at 10 mg/mL. A measured portion of the solution was pipetted into a microcentrifuge tube. Then, the ethanol was evaporated from each tube using a SpeedVac®, leaving just the compound in the tube. The appropriate amount of chloroform was added to the tube to produce a 0.1 M concentration. The solutions were placed on ice and in the dark so they could be pipetted into 10- and 20-μL aliquots in 1.5 mL microcentrifuge tubes. The solutions were frozen at […] with lids closed tightly and the tubes covered with foil.
(§3) Prior to treating the cells, a tube of the test compound was removed from the freezer and placed under a biosafety hood to evaporate the chloroform in the tubes. Then, dimethyl sulfoxide (DMSO) was added to the tubes to make the correct concentration to use in the experiment (0.1 M stock). The tubes were vortexed, and warm media with 10% FBS was slowly added to make the correct working concentrations to be used in the experiment. The compounds were directly added to each well for treatment.
U87MG cells were seeded in a 24-well plate, 5000 cells per well, and incubated overnight at 37° C. in serum-free media. The next day they were treated in triplicate with 50 and 100 μM of each test compound (1), (2), (3), (4), and (5) and the reference compound FTS. After five days, the cells were trypsinized (0.5%), stained with trypan blue, and counted to determine the cell number per well. The half-maximal inhibitory concentration (IC50) values were calculated using Multiplex Reader-Fit software made by MiraiBio Group, Hitachi Solutions America, Ltd. In a typical experiment, the control wells averaged 138,000 cells. The results are presented graphically in FIG. 1. The test compounds at 50 μM allowed the following U87MG cell proliferation compared to control: compound (1)—37%, compound (2)—18%, compound (3)—10%, compound (4)—40%, and compound (5)—0%. The reference compound FTS at 50 μM allowed 7% cell proliferation compared to control.
To further evaluate compounds (3) and (5), which inhibited the most cell growth in FIG. 1, more U87MG cells were seeded in 24-well plates, 5000 cells per well, and incubated overnight at 37° C. in serum-free media. The cells were treated the next morning in media with 5% serum in triplicate with standard concentrations of 6.25, 12.5, 25, and 50 μM of each test compound (3) and (5) and the reference compound FTS. After five days of treatment, the cells were trypsinized (0.5%) and then stained with trypan blue. Cells were counted to determine the number of cells per well. Again, the IC50 values were calculated using Multiplex Reader-Fit software made by MiraiBio Group, Hitachi Solutions America, Ltd. In a typical experiment, the control wells averaged 56,000 cells. The results are presented graphically in FIG. 2. The test compounds at 25 μM allowed the following U87MG cell proliferation compared to control: compound (3)—69% and compound (5)—0%. The reference compound FTS at 25 μM allowed over 50% cell proliferation compared to control.
Since the doses of compound (5) used above killed all of the cells, the dose curve was set up again using even lower doses of compound (5). U87MG cells were seeded in 24-well plates, 5000 cells per well, and incubated overnight at 37° C. in serum-free media. The cells were treated in triplicate with 6.25, 12.5, 25, and 50 μM of the reference compound FTS and 0.3125, 0.625, 1.25, 2.5, and 5.0 μM of the test compound (5) in media with 5% serum for five days. Then, the cells were trypsinized (0.5%) and stained with trypan blue, and the cell number per each well was determined. […]

The subject of data set [2] is PANC-1 cells. Description: Cell proliferation assay for PANC-1 cells. It counts as cell-based. The settings on record: 12.5 μM, media with 5% serum, five days (FIG. 3). Here is the method:
as §1, §2, §3
The cells were treated in triplicate with standard concentrations of 6.25, 12.5, 25, 50, and 100 μM of each test compound (3) and (5) and the reference compound FTS and, when needed, concentrations of 0.625, 1.25, 2.5 and 5.0 μM in media with 5% serum for five days. Then, the cells were stained with trypan blue, and the cell number per each well was determined. Again, the IC50 values were calculated using Multiplex Reader-Fit software made by MiraiBio Group, Hitachi Solutions America, Ltd. In a typical experiment, the control wells averaged 32,500 cells. The results are presented graphically in FIG. 3. […]

Data set [3] relates to hematopoietic progenitor cells (cord blood low density cells). The experiment in a line: Human hematopoietic progenitor cell toxicity (colony assay). It counts as cell-based. To be noted: 12 days; 25 and 2.5 μM for compound (3), 2.5 and 0.25 μM for compound (5). Here is the method: Cord blood low density cells were plated at 1×10^5 cells per plate in 1 mL complete methylcellulose in the presence of each test compound (3) and (5) and incubated for 12 days in a CO2 incubator. Colony-forming unit-granulocyte (CFU-GM), burst-forming unit-erythroid (BFU-E), and mixed colonies were counted under an inverted microscope. […] The test compounds were not toxic to the hematopoietic progenitor cells.

Data set [4] relates to Ras-GTP. Description: Ras-GTP Western blot in PDGF-stimulated NF-1-/- Schwann cells. It counts as cell-based, mouse. The settings on record: 2.5-5 μM, 3 minutes after PDGF stimulation (FIG. 5A). Here is the method: (§4) A purified population of NF-1−/−S 100+Schwann cells isolated from a plexiform neurofibroma in a genetically engineered mouse (Zhu, Y. et al., Science, May 2002, 3; 296(5569)):920-922) were stimulated with a maximum stimulating concentration of platelet derived growth factor (PDGF) in the presence of a control or compound (3) at concentrations of 2.5-5 μM. Ras-GTP was measured 3 minutes subsequently using Western blot analysis. […] In parallel experiments, Schwann cell proliferation was measured using visible spectroscopy 24 hrs after PDGF stimulation in the presence of a control or compound (3) at concentrations of 25-50 μM. […] Each asterisk in FIG. 5B represents a statistical difference relative to the control using analysis of variance. (Yang, Feng-Chun, et. al. J Clin Invest 2003, 112(12), 1851-1861; Yang, Feng-Chun, et. al. Hum Mol Genet 2006, 15(11), 1921-1930).
Background: Immunoblotting shows a protein as a band on a membrane.

Data set [5] relates to NF-1-/- S100+ Schwann cells. The experiment in a line: NF-1-/- Schwann cell proliferation (visible spectroscopy). It counts as cell-based, mouse. The settings on record: 25-50 μM, 24 hrs after PDGF stimulation (FIG. 5B). On the procedure:
as §4

For data set [6], the system named is primary human lung fibroblasts. The experiment in a line: Inhibition of TGF-β induced myofibroblast formation (α-SMA Western blot). It counts as cell-based. To be noted: TGF-β 72 hours, concentrations below 25 μM. Here is the method: Primary human lung fibroblasts were stimulated for 72 hours with transforming growth factor beta (TGF-β) to induce their differentiation to an alpha smooth muscle actin (α-SMA) expressing activated myofibroblasts cell fate. […] The activin like kinase receptor (ALK5) inhibitor SB431542 was used as a positive control. Myofibroblast formation was evaluated by Western blot by examining changes in α-SMA levels.

Where [7] appears, read: 25 μM, media with 5% serum, five days (FIG. 2).
The mark [8] stands for this setting: 50 μM, five days, trypan blue cell count (FIG. 1).

With `CC(C)=CCC/C(C)=C/CC/C(C)=C/CSc1ccccc1C(=O)O` [FTS, farnesyl-thiosalicylic acid, reference compound], the “U87MG cell proliferation compared to control” value in data set [1] (6.25 μM, media with 5% serum, five days (FIG. 2)) is given as “over 80%”; in data set [1] (setting [7]), “over 50%”; in data set [1] (setting [8]) it was 7%. In addition, in data set [2], the “PANC-1 cell proliferation compared to control” value is reported as “over 80%”.

As to `CC(C)=CCC/C(C)=C/CC/C(C)=C/CSc1ccccc1-c1nn[nH]n1` [compound (1), 5-(2-{[(2E,6E)-3,7,11-trimethyldodeca-2,6,10-trien-1-yl]sulfanyl}phenyl)-2H-1,2,3,4-tetrazole], the “U87MG cell proliferation compared to control” value in data set [1] (setting [8]) is given as 37%.

`CC(C)=CCC/C(C)=C/CC/C(C)=C/CSc1ccsc1C(=O)O` [compound (3), 3-{[(2E,6E)-3,7,11-trimethyldodeca-2,6,10-trien-1-yl]sulfanyl}thiophene-2-carboxylic acid]: the “U87MG cell proliferation compared to control” value in data set [1] (setting [7]) came out at 69%; in data set [1] (setting [8]), 10%. Further, the IC50 in data set [1] (Homo sapiens, U-87 MG, value quoted in Example 7, read-out: IC50 as determined on the U87MG cells) turned out to be 25 µM. Also, in data set [2], the “PANC-1 cell proliferation compared to control” value amounted to 41%. For the same compound, the “toxicity to hematopoietic progenitor cells (CFU-GM, BFU-E, mixed colonies)” value in data set [3] is given as “not toxic”. The “level of Ras-GTP relative to the control” value in data set [4] is recorded as “significantly reduced”. In addition, in data set [5], the “Schwann cell proliferation relative to the control” value is given as “reduced”. In data set [6], the “inhibition of myofibroblast formation” value is “did not inhibit”.

Turning to `CCOC(=O)c1nnsc1SC/C=C(\C)CC/C=C(\C)CCC=C(C)C` [compound (4), Ethyl 5-{[(2E,6E)-3,7,11-trimethyldodeca-2,6,10-trien-1-yl]sulfanyl}-1,2,3-thiadiazole-4-carboxylate], the “U87MG cell proliferation compared to control” value in data set [1] (setting [8]) is on record as 40%.

What is called IC50 is the concentration that gives 50% inhibition.
